# Like-named read-outs stand apart in the source and are kept apart here.
# Tests used:
# hERG = hERG (Homo sapiens, UniProt Q12809)
# [1] = mouse, microsomes
# [2] = human, microsomes
# in vivo = conditions: rat, po, 5 mg/kg
# Chain of hERG (Q12809 whole entry): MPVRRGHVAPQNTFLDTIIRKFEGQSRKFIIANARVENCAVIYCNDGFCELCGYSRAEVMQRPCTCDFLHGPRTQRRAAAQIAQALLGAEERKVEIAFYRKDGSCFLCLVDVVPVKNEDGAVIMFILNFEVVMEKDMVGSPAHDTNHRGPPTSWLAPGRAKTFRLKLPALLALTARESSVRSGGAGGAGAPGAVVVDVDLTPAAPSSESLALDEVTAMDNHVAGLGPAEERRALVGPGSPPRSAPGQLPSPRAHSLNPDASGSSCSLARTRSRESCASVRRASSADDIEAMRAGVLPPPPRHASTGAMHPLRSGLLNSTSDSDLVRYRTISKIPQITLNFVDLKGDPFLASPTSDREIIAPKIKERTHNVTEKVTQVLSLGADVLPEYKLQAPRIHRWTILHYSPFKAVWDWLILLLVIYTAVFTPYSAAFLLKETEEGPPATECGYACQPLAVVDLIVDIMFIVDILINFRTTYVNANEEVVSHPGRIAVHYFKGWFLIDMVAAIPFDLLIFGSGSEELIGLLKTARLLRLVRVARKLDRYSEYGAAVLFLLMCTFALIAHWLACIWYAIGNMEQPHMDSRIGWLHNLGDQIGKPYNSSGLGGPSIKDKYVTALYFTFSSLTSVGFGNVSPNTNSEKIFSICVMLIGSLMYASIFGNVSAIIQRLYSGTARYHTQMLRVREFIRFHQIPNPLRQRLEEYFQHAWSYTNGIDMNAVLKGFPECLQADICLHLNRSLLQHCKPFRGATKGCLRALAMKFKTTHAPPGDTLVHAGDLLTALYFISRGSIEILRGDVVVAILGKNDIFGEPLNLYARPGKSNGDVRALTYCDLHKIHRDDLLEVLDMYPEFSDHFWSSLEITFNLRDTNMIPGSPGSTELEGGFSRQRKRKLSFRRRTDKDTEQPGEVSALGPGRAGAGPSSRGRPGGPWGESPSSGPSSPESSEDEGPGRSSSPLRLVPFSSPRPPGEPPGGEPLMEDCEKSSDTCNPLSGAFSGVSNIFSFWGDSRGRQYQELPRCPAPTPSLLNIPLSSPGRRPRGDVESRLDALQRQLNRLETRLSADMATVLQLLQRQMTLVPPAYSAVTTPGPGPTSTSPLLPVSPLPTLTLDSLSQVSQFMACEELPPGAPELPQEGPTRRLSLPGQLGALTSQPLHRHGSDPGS
smiles,measurement,setting,value
COc1cccc(CNc2ccc3ncnc(Nc4ccc(Br)cc4)c3c2)c1 [Compound 6],"Inhibitory effect on MERS-CoV infection, in words",MERS-CoV,maintained the potency
COc1cccc(CNc2ccc3ncnc(Nc4ccc(F)cc4)c3c2)c1 [Compound 7],"Inhibitory effect on MERS-CoV infection, in words",MERS-CoV,reduced potency compared to 1
COc1cccc(CNc2ccc3ncnc(Nc4cccc(Cl)c4)c3c2)c1 [Compound 8],"Inhibitory effect on MERS-CoV infection, in words",MERS-CoV,reduced potency compared to 1
COc1cccc(CNc2ccc3ncnc(Nc4ccc(C#N)cc4)c3c2)c1 [Compound 9],"Inhibitory effect on MERS-CoV infection, in words",MERS-CoV,reduced potency compared to 1
COc1cccc(CNc2ccc3ncnc(Nc4ccc(C(F)(F)F)cc4)c3c2)c1 [Compound 11],"Inhibitory effect on MERS-CoV infection, in words",MERS-CoV,slightly improve the potency
N#Cc1ccccc1CNc1ccc2ncnc(Nc3ccc(F)c(Cl)c3)c2c1 [Compound 19],"Inhibitory effect on MERS-CoV infection, in words",MERS-CoV,no inhibitory effect
N#Cc1cccc(CNc2ccc3ncnc(Nc4ccc(F)c(Cl)c4)c3c2)c1 [Compound 20],"hERG binding, in words",hERG,no hERG binding
same,"Microsomal stability, in words",[1],good microsomal stability
same,"Microsomal stability, in words",[2],good microsomal stability
same,"Cytotoxicity, in words",Vero,no cytotoxicity
same,Cytotoxicity Vero,Vero; African green monkey,>100 µM
same,"Cytotoxicity, in words",HFL-1,no cytotoxicity
same,Cytotoxicity HFL-1,HFL-1; human,>100 µM
same,"Cytotoxicity, in words",L929,no cytotoxicity
same,Cytotoxicity L929,L929; mouse,>100 µM
same,"Cytotoxicity, in words",NIH 3T3,no cytotoxicity
same,Cytotoxicity NIH 3T3,NIH 3T3; mouse,>100 µM
same,"Cytotoxicity, in words",CHO-K1,no cytotoxicity
same,Cytotoxicity CHO-K1,CHO-K1; Chinese hamster,>100 µM
same,Cmax,in vivo,200 ng/mL
Fc1ccc(Nc2ncnc3ccc(NC4CCCCC4)cc23)cc1Cl [Compound 25],"Inhibitory effect on MERS-CoV infection, in words",MERS-CoV,little inhibitory effects
N#Cc1cccc(CNc2cc3c(Nc4ccc(F)c(Cl)c4)ncnc3cc2O)c1 [Compound 30],"Inhibitory effect on MERS-CoV infection, in words",MERS-CoV,no inhibitory effects
N#Cc1ccccc1CNc1ccc2ncnc(Nc3ccc(C(F)(F)F)cc3)c2c1 [Compound 31],"Inhibitory effect on MERS-CoV infection, in words",MERS-CoV,decreased potency
